Assay results as given in publication PMC10281575, “PfCRT mutations conferring piperaquine resistance in falciparum malaria shape the kinetics of quinoline drug binding and transport” (PLOS Pathogens, 2023).
Several values for one entry are separate records, joined by “and”; a condition that tells them apart may be missing. Equal values may be shown once.

Molecular target: T1, PfCRT^Dd2_H97Y_F145I (Plasmodium falciparum, UniProt Q8IBZ9, A220S/F145I/H97Y/I356T/K76T/M74I/N326S/N75E/Q271E/R371I)
T1 construct: expressed in transfected cells; host or cells: Xenopus laevis oocytes injected with in vitro transcribed RNA
T1 sequence (Q8IBZ9 1-424 M74I/N75E/K76T/H97Y/F145I/A220S/Q271E/N326S/I356T/R371I): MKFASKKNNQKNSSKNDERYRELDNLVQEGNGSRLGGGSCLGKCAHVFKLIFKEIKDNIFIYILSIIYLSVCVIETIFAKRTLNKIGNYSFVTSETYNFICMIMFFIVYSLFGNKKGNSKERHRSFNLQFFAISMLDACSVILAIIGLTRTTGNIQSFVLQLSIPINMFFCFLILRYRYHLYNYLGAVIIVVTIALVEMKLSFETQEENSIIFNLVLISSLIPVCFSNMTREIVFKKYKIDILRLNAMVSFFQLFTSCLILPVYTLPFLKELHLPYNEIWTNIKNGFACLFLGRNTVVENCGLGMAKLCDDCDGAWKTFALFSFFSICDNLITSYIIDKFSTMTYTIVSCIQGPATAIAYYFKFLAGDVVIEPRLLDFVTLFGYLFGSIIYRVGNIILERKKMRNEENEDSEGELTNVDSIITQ
Assay: Radiolabeled drug uptake in X. laevis oocytes expressing PfCRT^Dd2_H97Y_F145I
Assay type: cell-based
Settings: for PfCRTDd2_H97Y_F145I-mediated PPQ transport / PfCRTDd2_H97Y_F145I-mediated CQ transport: individual replicates (Fig 11); for Hc, Hill coefficient / Vmax, maximal velocity of drug transport / Km: Hill equation fit, 10-500 μM drug, pH 6; for Km: read-out: KM, Michaelis constant
Method: Adult female X. laevis frogs (purchased from NASCO) were anesthetized by submersion in a solution of 0.3% (w/v) 3-amino benzoate methanesulfonate for 15 min. Sections of the ovary were surgically removed and placed in Ca^2+-free ND96 buffer supplemented with 0.1% collagenase D (w/v; Roche), 0.5% BSA (w/v) and 9 mM Na2HPO4 at 18°C for 14–16 h while gently shaking. The oocytes were then washed several times with ND96 buffer (5 mM HEPES, pH 7.5, 96 mM NaCl, 2 mM KCl, 1.8 mM CaCl2, 1 mM MgCl2), supplemented with […] gentamycin. Healthy-looking stage V-VI oocytes were manually selected and randomly grouped for injection. A codon-optimized coding sequence of PfCRT was subcloned into the pSP64T expression vector and subsequently linearized using the restriction endonuclease BamHI or SalI (New England Biolabs GmbH). RNA for injection was transcribed in vitro using the mMESSAGE mMACHINE SP6 Transcription kit (Ambion), diluted with nuclease-free water to a final concentration of 0.6 μg/μL and stored at -80°C. RNA was injected using precision-bore glass capillary tubes (3.5-inch glass capillaries; Drummond Scientific Co.), which were pulled on a vertical puller (P-87 Flaming/Brown micropipette puller, Sutter Instrument Co.) and graduated. The micropipettes were connected to a microinjector (Nanoject II Auto-Nanoliter Injector, Drummond Scientific Co.). Injection was conducted under stereomicroscopic control. 50 nL of nuclease-free water alone (control oocytes) or 50 nL of nuclease-free water containing 30 ng of RNA was injected per oocyte. Injected oocytes were kept for 72 h at 18°C in ND96 buffer with two daily buffer changes before being used for further experiments.
Drug transport assays were performed as previously described. Briefly, measurements of radiolabeled drug uptake were made over 1 h, unless otherwise specified. […] Where specified, one or more unlabeled drugs were also present at the indicated concentrations. […] The uptake assays were terminated by removing the oocytes from the reaction medium and washing them three times with 2 mL of ice-cold ND96 buffer. Each oocyte was transferred to a separate scintillation vial and lysed by the addition of 200 μL of a 5% SDS solution. The radioactivity in the sample was measured using a liquid scintillation analyser Tri-Carb 4910 TR (PerkinElmer). Water-injected oocytes were analyzed in parallel as a negative control. The buffer from each condition was measured in duplicate in parallel to each experiment to transform counts per minute into pmol of drug. Drug uptake attributable to PfCRT was determined by subtracting the background uptake from water-injected oocytes from that of PfCRT-expressing oocytes. In all cases, at least three independent experiments were performed on oocytes from different frogs, and for each condition in an experiment, measurements were made from 10 oocytes per treatment.

| SMILES | PfCRTDd2_H97Y_F145I-mediated PPQ transport (10 µM PPQ) | PfCRTDd2_H97Y_F145I-mediated PPQ transport (50 µM PPQ) | PfCRTDd2_H97Y_F145I-mediated PPQ transport (100 µM PPQ) | PfCRTDd2_H97Y_F145I-mediated PPQ transport (200 µM PPQ) | PfCRTDd2_H97Y_F145I-mediated PPQ transport (300 µM PPQ) | PfCRTDd2_H97Y_F145I-mediated PPQ transport (400 µM PPQ) | PfCRTDd2_H97Y_F145I-mediated PPQ transport (500 µM PPQ) | Hc, Hill coefficient | Vmax, maximal velocity of drug transport | Km | PfCRTDd2_H97Y_F145I-mediated CQ transport (10 µM CQ) | PfCRTDd2_H97Y_F145I-mediated CQ transport (50 µM CQ) | PfCRTDd2_H97Y_F145I-mediated CQ transport (100 µM CQ) | PfCRTDd2_H97Y_F145I-mediated CQ transport (200 µM CQ) | PfCRTDd2_H97Y_F145I-mediated CQ transport (300 µM CQ) | PfCRTDd2_H97Y_F145I-mediated CQ transport (400 µM CQ) | PfCRTDd2_H97Y_F145I-mediated CQ transport (500 µM CQ) |
| --- | --- | --- | --- | --- | --- | --- | --- | --- | --- | --- | --- | --- | --- | --- | --- | --- | --- |
| Clc1ccc2c(N3CCN(CCCN4CCN(c5ccnc6cc(Cl)ccc56)CC4)CC3)ccnc2c1 [PPQ, piperaquine] | 4.45 pmol oocyte-1 h-1 and 2.50 pmol oocyte-1 h-1 and 6.51 pmol oocyte-1 h-1 | 12.64 pmol oocyte-1 h-1 and 8.74 pmol oocyte-1 h-1 and 25.96 pmol oocyte-1 h-1 and 14.99 pmol oocyte-1 h-1 and 20.94 pmol oocyte-1 h-1 | 28.86 pmol oocyte-1 h-1 and 38.51 pmol oocyte-1 h-1 and 10.62 pmol oocyte-1 h-1 and 34.53 pmol oocyte-1 h-1 | 112.27 pmol oocyte-1 h-1 and 50.98 pmol oocyte-1 h-1 and 60.86 pmol oocyte-1 h-1 and 71.21 pmol oocyte-1 h-1 and 85.02 pmol oocyte-1 h-1 | 111.40 pmol oocyte-1 h-1 and 72.67 pmol oocyte-1 h-1 and 112.81 pmol oocyte-1 h-1 and 115.57 pmol oocyte-1 h-1 | 94.84 pmol oocyte-1 h-1 and 111.83 pmol oocyte-1 h-1 and 131.05 pmol oocyte-1 h-1 | 81.84 pmol oocyte-1 h-1 and 171.24 pmol oocyte-1 h-1 and 123.65 pmol oocyte-1 h-1 and 87.38 pmol oocyte-1 h-1 | 2.0 ± 0.3 | 131 ± 3 pmol oocyte^-1 h^-1 and 131 ± 10 pmol oocyte^-1 h^-1 | 170 ± 20 µM | – | – | – | – | – | – | – |
| CCN(CC)CCCC(C)Nc1ccnc2cc(Cl)ccc12 (centres unmarked) [CQ, chloroquine] | – | – | – | – | – | – | – | 1.6 ± 0.2 | 35 ± 1 pmol oocyte^-1 h^-1 and 35 ± 4 pmol oocyte^-1 h^-1 | 240 ± 40 µM | 0.56 pmol oocyte-1 h-1 and 0.57 pmol oocyte-1 h-1 and 0.94 pmol oocyte-1 h-1 | 1.87 pmol oocyte-1 h-1 and 2.38 pmol oocyte-1 h-1 and 2.20 pmol oocyte-1 h-1 and 4.15 pmol oocyte-1 h-1 | 6.01 pmol oocyte-1 h-1 and 3.76 pmol oocyte-1 h-1 and 7.81 pmol oocyte-1 h-1 and 7.54 pmol oocyte-1 h-1 and 7.03 pmol oocyte-1 h-1 | 12.93 pmol oocyte-1 h-1 and 22.31 pmol oocyte-1 h-1 and 9.72 pmol oocyte-1 h-1 and 19.44 pmol oocyte-1 h-1 and 15.86 pmol oocyte-1 h-1 | 22.26 pmol oocyte-1 h-1 and 28.62 pmol oocyte-1 h-1 and 11.32 pmol oocyte-1 h-1 and 17.61 pmol oocyte-1 h-1 | 20.46 pmol oocyte-1 h-1 and 24.94 pmol oocyte-1 h-1 and 27.66 pmol oocyte-1 h-1 | 23.29 pmol oocyte-1 h-1 and 35.24 pmol oocyte-1 h-1 and 26.54 pmol oocyte-1 h-1 and 24.00 pmol oocyte-1 h-1 |
